{
  "source": "paper PMC11304236",
  "about": "“A Novel Drug Candidate for Sepsis Targeting Heparanase by Inhibiting Cytokine Storm” (Advanced Science, 2024)",
  "key": {"[1]": {"system": "M1 macrophages (F4/80+CD86+)", "assay": "Flow cytometry of M1 macrophages in organs of LPS-induced septic mice", "format": "in vivo, mouse", "conditions": "12 h after LPS 40 mg/kg i.p.", "description": "Each group of mice was euthanized 24 h after LPS injection, spleens were harvested, red blood cells were lysed to detect splenocyte apoptosis, and the ratio of CD3^+CD4^+ T cells, CD3^+CD8^+ T cells, CD3^−CD19^+ B cells in spleen cells and lymph nodes quantified. Antibodies were: FITC‐Annexin V and PI; APC‐CD3, FITC‐CD4, PE‐CD8a, and PE‐CD19. Each group of mice was euthanized 12 h after LPS injection, Lung, kidney, and spleens were harvested, red blood cells were lysed to detect the ratio of macrophages in multiple organs, Antibodies were: FITC anti‐mouse F4/80; APC anti‐mouse CD86. Flow cytometry was used to quantify the adhesion molecules ICAM‐1 and VCAM‐1 on the surface of RAW264.7 cells and HUVECs. CV122 (50 µM) was incubated with the cells for 3 h, LPS (5 µg mL^−1) and TNF‐α (20 ng mL^−1) were used to stimulate the cells for 1 h, and the cells were collected. FITC anti‐mouse CD54 antibody and AF647 anti‐mouse CD106 antibody were incubated for 30 min at room temperature in the dark, PBS was added at 1000 rpm, and the cells were centrifuged for 7 min. A 200‐mesh copper mesh was used to filter the cells into a flow cytometer, and a flow cytometer (BD Biosciences) was used for detection.\nFigure S6. M1 macrophages in multiple organs of LPS-induced septic mice. […] All results are expressed as mean ± SD (n = 3), *p < 0.05,**p < 0.01, ***p < 0.001, ****p < 0.0001; ns, not significant. […]"}, "LPS-induced septic mice": {"system": "LPS-induced septic mice", "conditions": "mouse, in vivo"}, "CCHFV": {"system": "CCHFV", "format": "in vivo, mouse"}, "HPA": {"system": "HPA", "assay": "HPA expression in TNF-α-stimulated HUVECs (immunofluorescence, western blotting)", "format": "cell-based, human", "conditions": "CV122 50 µM 3 h, then TNF-α 20 ng mL−1 1 h", "description": "Lungs were harvested from LPS‐induced and CLP‐induced sepsis model mice, and frozen sections were prepared. HUVECs and RAW264.7 macrophages were incubated with CV122 for 3 h, and TNF‐α (20 ng mL^−1) and LPS (5 µg mL^−1) were used to stimulate cells for 1 h. Lung tissue, HUVECs, and RAW264.7 macrophages were fixed with 4% paraformaldehyde for 10 min before permeabilization with 0.5% Triton X‐100 for 10 min. The membrane was sealed with 4% skimmed milk powder and incubated at room temperature for 50 min. Primary antibodies were rabbit anti‐heparanase polyclonal antibodies overnight at 4 °C. The diluent of the secondary antibody FITC‐WGA‐lectin was kept at room temperature and protected from light for 1 h. Nuclei were stained with DAPI. After 120 s, images were acquired with a confocal microscope (LSM 800, Zeiss, Germany).\nCV122 (50 µM) was incubated with HUVECs and RAW264.7 cells for 3 h, and LPS (5 µg mL^−1) and TNF‐α (20 ng mL^−1) were incubated for 1 h. Total protein was extracted with RIPA tissue/cell lysate solution. Lung tissues were collected and homogenized in cold RIPA buffer to obtain proteins. The BCA method was used to quantify protein. After full denaturing, proteins were separated by 10% SDS‐PAGE and transferred to PVDF membrane. […] Blots were developed with a chemiluminescent HRP substrate, and the protein bands were detected with a chemiluminescence imager (MiniChemi610)."}},
  "data": [
    {"smiles": "COC1OC(COS(=O)(=O)O)C(OC2OC(C(=O)O)C(OC3OC(COS(=O)(=O)O)C(OC4OC(C(=O)O)C(OC5OC(COS(=O)(=O)O)C(O)C(O)C5NS(=O)(=O)O)C(OS(=O)(=O)O)C4O)C(OS(=O)(=O)O)C3NS(=O)(=O)O)C(O)C2OS(=O)(=O)O)C(O)C1NS(=O)(=O)O", "note": "(centres unmarked) [CV122]", "values": [
      {"measurement": "percentage of M1 macrophages in kidneys and spleen", "setting": "[1]", "result": "significantly inhibited the percentage of M1 macrophages"},
      {"measurement": "percentage of M1 macrophages (F4/80+CD86+) in the lung", "setting": "[1]; **p < 0.01", "result": "significantly reduced by CV122"},
      {"measurement": "AST, ALT, BUN in serum and MPO in lung tissue", "setting": "LPS-induced septic mice", "result": "returned to normal upon CV122 treatment, which was more effective than Suramin"},
      {"measurement": "kidney damage (H&E)", "setting": "LPS-induced septic mice", "result": "resolved by CV122"},
      {"measurement": "liver damage (H&E)", "setting": "LPS-induced septic mice", "result": "significantly improved by CV122"},
      {"measurement": "lung inflammation by micro-CT imaging", "setting": "LPS-induced septic mice", "result": "almost completely inhibit this progress"},
      {"measurement": "lung pathological damage (H&E)", "setting": "LPS-induced septic mice", "result": "significantly improved by CV122 administration"},
      {"measurement": "lung weight/body weight ratio", "setting": "LPS-induced septic mice", "result": "significantly decreased"},
      {"measurement": "lung wet–dry weight ratio", "setting": "LPS-induced septic mice", "result": "extremely significantly decreased"},
      {"measurement": "spleen pathological changes (H&E)", "setting": "LPS-induced septic mice", "result": "no pathological changes were observed in spleen tissue"},
      {"measurement": "spleen pathological damage (H&E)", "setting": "CCHFV; 7 d after infection", "result": "spleen congestion and edema were slightly reduced"},
      {"measurement": "body weight", "setting": "CCHFV; CCHFV-infected IFNAR−/− mice", "result": "slightly higher body weights"},
      {"measurement": "survival rate", "setting": "CCHFV; CV122 20 mg kg−1 s.c. at 2, 3, 4 and 5 days after infection, IFNAR−/− mice, 8 day or longer observation, control 20%", "result": 80, "unit": "%"},
      {"measurement": "HPA expression in HUVECs", "setting": "HPA", "result": "significantly inhibited HPA expression in HUVECs"}
    ]}
  ]
}
